Legend:
Drosophila OR71a = biological target: T1, Drosophila OR71a (Drosophila melanogaster, UniProt Q9VUK5); experiment: cell-based; design: GCaMP6 calcium fluorescence in stable HEK293 OR+ORCO lines; peak dF normalised to 50 uM VUAA1 (=1); details: HEK293; relative to 50 uM VUAA1 response; below 0.05 set to 0; read-out: % activation
T1 construct: expressed in transfected cells
T1 sequence (Q9VUK5 1-378): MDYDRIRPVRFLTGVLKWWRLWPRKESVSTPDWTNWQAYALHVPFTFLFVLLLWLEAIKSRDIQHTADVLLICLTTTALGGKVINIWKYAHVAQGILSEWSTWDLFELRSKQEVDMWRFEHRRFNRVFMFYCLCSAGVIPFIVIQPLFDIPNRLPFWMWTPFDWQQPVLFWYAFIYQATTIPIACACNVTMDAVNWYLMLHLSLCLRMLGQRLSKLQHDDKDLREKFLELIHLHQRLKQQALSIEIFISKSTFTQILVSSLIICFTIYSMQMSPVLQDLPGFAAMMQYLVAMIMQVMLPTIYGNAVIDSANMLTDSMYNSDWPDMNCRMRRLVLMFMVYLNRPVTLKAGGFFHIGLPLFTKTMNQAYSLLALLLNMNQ
T1 sequence (Q9VNB5 1-486 partner): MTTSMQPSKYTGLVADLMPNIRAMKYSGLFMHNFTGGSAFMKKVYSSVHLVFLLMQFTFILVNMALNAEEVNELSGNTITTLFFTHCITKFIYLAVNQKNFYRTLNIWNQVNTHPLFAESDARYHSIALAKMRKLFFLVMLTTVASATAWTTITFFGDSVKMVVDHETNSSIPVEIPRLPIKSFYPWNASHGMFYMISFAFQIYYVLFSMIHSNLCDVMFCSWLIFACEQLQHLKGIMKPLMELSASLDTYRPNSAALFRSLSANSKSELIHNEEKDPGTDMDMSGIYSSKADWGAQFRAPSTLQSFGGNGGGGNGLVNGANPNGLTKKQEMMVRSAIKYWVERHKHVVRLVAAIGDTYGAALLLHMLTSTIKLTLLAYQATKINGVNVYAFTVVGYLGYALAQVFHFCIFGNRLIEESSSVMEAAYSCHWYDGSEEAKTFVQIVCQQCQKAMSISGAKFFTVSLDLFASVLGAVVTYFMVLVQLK
Description: (§1) Twelve thousand to 18,000 cells were plated into each well of a black wall, transparent bottom 384-well microplate (Greiner) 48 h or 72 h before the measurements and were simultaneously treated with 1 μg/mL doxycycline. Typically, three columns were filled with one OR expressing cell line, each row was treated with the same compound (three technical replicates for each OR), and each responsive VOC-OR combination was measured at least three times on different days. The plate has 24 columns, thus we could record responses in up to eight different cell lines in each plate. On the day of the experiment, the growth medium was replaced with 20 µL assay buffer/well (140 mM NaCl, 5 mM KCl, 2 mM CaCl2, 1 mM MgCl2, 5 mM HEPES-Na, 20 mM glucose, pH 7.3, 340 mOsm). […] Baseline fluorescence (F0) was recorded for 5 s, after which 7 µL VOC buffer (140 mM NaCl, 5 mM KCl, 2 mM CaCl2, 1 mM MgCl2, 5 mM HEPES-Na, 31 mM glucose, 0.1% DMSO, pH 7.3, 340 mOsm) was injected into each well in one row and the fluorescence response was recorded for an additional 30 s, at a rate of one read/sec. VOC solutions (VOC buffer with 4× concentration of the final measured VOC concentration, 9 µL/well was injected) were measured on the same wells in a second round with the same protocol. Each individual concentration of a specific VOC sample was recorded in three wells for the same cell line on the same microplate. The raw data were exported in xls file format, F0 and FMAX values, and the fluorescence intensity changes (∆F) were calculated in Excel (Microsoft) (Supplementary file Data summary.xlsx) using the following equation: ΔF=FMAX-F0/F0 (see also Fig. 1C). On each plate, we recorded the response of each cell line to 50 µM VUAA1. The average of these ∆F values of each cell line were used to calculate the VUAA1-normalized values for the rest of the plate, by dividing VOC response ∆F values by the average VUAA1 response ∆F value of the corresponding OR cell line. Each VOC-OR combination was measured three times as tec The recorded FMAX, F0, ∆F, VUAA1-normalized ∆F values, as well as the OR name, the name of the tested sample, and the final concentration for each well were copied into supplementary file Data summary.xlsx, that was used to summarize all the plates recorded. Here, the averages of the measurements were calculated for each receptor-VOC-concentration combination. […] Each VOC was measured at 1, 10, and 100 µM final concentration on each receptor. VUAA1-normalized response was calculated as described in methods. Values are averages of at least three biological replicates for responsive combinations and two for the non-responsive combinations. The chemical structures of the strong and medium ligands are shown for each cell line. Heat map: white-green colors correspond to the lowest-highest values measured for each cell line.

Drosophila OR10a = biological target: T2, Drosophila OR10a (Drosophila melanogaster, UniProt Q9VYZ1); experiment: cell-based; design: GCaMP6 calcium fluorescence in stable HEK293 OR+ORCO lines; peak dF normalised to 50 uM VUAA1 (=1); details: HEK293; relative to 50 uM VUAA1 response; below 0.05 set to 0; read-out: % activation
T2 construct: expressed in transfected cells
T2 sequence (Q9VYZ1 1-406): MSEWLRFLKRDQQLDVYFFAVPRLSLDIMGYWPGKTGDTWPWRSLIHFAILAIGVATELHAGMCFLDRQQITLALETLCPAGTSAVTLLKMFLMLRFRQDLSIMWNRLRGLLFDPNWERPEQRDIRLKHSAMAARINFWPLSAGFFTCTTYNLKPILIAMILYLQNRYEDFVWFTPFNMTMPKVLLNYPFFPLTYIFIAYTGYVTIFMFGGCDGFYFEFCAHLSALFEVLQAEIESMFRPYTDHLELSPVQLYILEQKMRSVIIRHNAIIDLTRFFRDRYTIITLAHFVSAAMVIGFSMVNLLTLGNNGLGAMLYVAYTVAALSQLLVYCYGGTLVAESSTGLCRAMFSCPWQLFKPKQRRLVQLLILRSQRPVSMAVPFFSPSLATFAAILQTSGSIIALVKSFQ
T2 sequence (Q9VNB5 1-486 partner): T1 sequence (Q9VNB5 1-486 partner)
Description: as §1

Which results are given for CC/C=C/CCO [e3-hexenol]?
activity at 1 µM (Drosophila OR71a): 0%; activity at 10 µM (Drosophila OR71a): 0%; activity at 100 µM (Drosophila OR71a): 0%; activity at 1 µM (Drosophila OR10a): 0%; activity at 10 µM (Drosophila OR10a): 0%; activity at 100 µM (Drosophila OR10a): 7.4%
